According to publication PMC11062922 (Nature Chemical Biology, 2023):
Where two headings read alike, the source gives them in different places.

Tests used:
[1] = target: T1, endogenous kinases and other proteins enriched by Kinobeads from mixed lysates of K-562, COLO-205, MV-4-11, SK-N-BE(2) and OVCAR-8 (Homo sapiens, UniProt Q05397); assay: Kinobeads competition binding profiling, two doses (100 nM and 1 µM); conditions: read-out: Lestaurtinib Drugmatrix value, Gene Name PTK2;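 also: inhibitor preincubated 45 min at 4 °C in cell lysate, then bead pulldown. Bound protein quantified by label-free mass spectrometry relative to DMSO vehicle control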
T1 construct: endogenous in cells

[2] = target: T2, endogenous kinases and other proteins enriched by Kinobeads from mixed lysates of K-562, COLO-205, MV-4-11, SK-N-BE(2) and OVCAR-8 (Homo sapiens, UniProt Q13188); assay: as above; conditions: read-out: Lestaurtinib Drugmatrix value, Gene Name STK3; target STK3; one Lestaurtinib control experiment/replicate (R1-R3)
T2 construct: endogenous in cells

[3] = target: T3, endogenous kinases and other proteins enriched by Kinobeads from mixed lysates of K-562, COLO-205, MV-4-11, SK-N-BE(2) and OVCAR-8 (Homo sapiens, UniProt Q13882); assay: as above; conditions: read-out: Lestaurtinib Drugmatrix value, Gene Name PTK6; target PTK6; one Lestaurtinib control experiment/replicate (R1-R3)
T3 construct: endogenous in cells

[4] = target: T4, endogenous kinases and other proteins enriched by Kinobeads from mixed lysates of K-562, COLO-205, MV-4-11, SK-N-BE(2) and OVCAR-8 (Homo sapiens, UniProt P42345); assay: as above; conditions: read-out: Lestaurtinib Drugmatrix value (apparent Kd), Gene Name MTOR; target MTOR; each column = one Lestaurtinib control run_replicate
T4 construct: endogenous in cells

[5] = target: T5, endogenous kinases and other proteins enriched by Kinobeads from mixed lysates of K-562, COLO-205, MV-4-11, SK-N-BE(2) and OVCAR-8 (Homo sapiens, UniProt P07948); assay: as above; conditions: read-out: Lestaurtinib Drugmatrix value (apparent Kd), Gene Name LYN; target LYN; each column = one Lestaurtinib control run_replicate
T5 construct: endogenous in cells
T5 sequence (P07948 whole entry): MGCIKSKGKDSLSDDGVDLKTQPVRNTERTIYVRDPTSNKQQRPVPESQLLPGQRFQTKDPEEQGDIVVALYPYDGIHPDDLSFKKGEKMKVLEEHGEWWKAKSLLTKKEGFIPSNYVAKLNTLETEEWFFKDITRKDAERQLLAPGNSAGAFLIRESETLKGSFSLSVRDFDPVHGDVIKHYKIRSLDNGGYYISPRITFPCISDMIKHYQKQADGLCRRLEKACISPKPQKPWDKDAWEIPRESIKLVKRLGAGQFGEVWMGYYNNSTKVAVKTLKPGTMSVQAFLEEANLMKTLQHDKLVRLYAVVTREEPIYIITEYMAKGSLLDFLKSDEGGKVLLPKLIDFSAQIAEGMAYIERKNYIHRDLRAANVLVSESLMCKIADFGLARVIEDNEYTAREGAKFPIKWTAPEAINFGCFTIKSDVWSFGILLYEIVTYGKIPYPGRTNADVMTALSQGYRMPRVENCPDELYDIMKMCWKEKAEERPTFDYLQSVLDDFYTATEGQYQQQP

GSK3A = target: T6, GSK3A (Homo sapiens, UniProt P49840); assay: Kinobeads two-dose competition binding: GSK3A; conditions: read-out: Lestaurtinib Drugmatrix value, Gene Name GSK3A
T6 construct: endogenous in cells
T6 sequence (P49840 whole entry): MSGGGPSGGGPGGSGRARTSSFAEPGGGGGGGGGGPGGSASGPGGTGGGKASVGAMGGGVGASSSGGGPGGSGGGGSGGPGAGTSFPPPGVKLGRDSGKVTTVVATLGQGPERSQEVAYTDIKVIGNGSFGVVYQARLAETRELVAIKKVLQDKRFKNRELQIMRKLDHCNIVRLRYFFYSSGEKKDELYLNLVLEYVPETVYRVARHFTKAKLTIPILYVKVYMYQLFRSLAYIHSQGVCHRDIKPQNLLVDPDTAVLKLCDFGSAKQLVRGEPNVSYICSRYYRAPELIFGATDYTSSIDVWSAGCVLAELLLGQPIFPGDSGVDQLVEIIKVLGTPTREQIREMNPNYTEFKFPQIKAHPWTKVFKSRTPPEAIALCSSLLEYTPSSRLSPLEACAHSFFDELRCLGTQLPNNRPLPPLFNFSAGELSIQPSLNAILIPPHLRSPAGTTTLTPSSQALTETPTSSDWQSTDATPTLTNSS

[6] = target: T7, endogenous kinases and other proteins enriched by Kinobeads from mixed lysates of K-562, COLO-205, MV-4-11, SK-N-BE(2) and OVCAR-8 (Homo sapiens, UniProt Q9UHD2); assay: Kinobeads competition binding profiling, two doses (100 nM and 1 µM); conditions: TBK1;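 also: inhibitor preincubated 45 min at 4 °C in cell lysate, then bead pulldown. Bound protein quantified by label-free mass spectrometry relative to DMSO vehicle control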
T7 construct: endogenous in cells
T7 sequence (Q9UHD2 whole entry): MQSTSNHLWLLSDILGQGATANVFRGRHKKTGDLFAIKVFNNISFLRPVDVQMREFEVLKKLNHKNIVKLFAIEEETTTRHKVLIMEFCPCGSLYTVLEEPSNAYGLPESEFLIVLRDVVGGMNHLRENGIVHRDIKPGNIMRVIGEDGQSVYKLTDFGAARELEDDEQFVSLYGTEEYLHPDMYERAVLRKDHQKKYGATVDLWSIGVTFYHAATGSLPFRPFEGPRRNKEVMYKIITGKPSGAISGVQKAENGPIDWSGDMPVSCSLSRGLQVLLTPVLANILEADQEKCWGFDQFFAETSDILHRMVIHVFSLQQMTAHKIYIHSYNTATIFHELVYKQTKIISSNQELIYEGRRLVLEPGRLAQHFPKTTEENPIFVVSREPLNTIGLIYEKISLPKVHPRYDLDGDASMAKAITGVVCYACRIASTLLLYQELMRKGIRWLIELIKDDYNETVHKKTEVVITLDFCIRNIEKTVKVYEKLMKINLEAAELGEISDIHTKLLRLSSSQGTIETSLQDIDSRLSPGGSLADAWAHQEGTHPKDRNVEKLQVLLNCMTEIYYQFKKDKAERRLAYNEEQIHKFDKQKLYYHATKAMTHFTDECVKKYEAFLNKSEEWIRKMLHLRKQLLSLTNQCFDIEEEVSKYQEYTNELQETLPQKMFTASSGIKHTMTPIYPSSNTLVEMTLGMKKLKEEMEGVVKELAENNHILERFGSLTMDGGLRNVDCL

[7] = target: T8, endogenous kinases and other proteins enriched by Kinobeads from mixed lysates of K-562, COLO-205, MV-4-11, SK-N-BE(2) and OVCAR-8 (Homo sapiens, UniProt Q08345); assay: as above; conditions: DDR1
T8 construct: endogenous in cells
T8 sequence (Q08345 19-913): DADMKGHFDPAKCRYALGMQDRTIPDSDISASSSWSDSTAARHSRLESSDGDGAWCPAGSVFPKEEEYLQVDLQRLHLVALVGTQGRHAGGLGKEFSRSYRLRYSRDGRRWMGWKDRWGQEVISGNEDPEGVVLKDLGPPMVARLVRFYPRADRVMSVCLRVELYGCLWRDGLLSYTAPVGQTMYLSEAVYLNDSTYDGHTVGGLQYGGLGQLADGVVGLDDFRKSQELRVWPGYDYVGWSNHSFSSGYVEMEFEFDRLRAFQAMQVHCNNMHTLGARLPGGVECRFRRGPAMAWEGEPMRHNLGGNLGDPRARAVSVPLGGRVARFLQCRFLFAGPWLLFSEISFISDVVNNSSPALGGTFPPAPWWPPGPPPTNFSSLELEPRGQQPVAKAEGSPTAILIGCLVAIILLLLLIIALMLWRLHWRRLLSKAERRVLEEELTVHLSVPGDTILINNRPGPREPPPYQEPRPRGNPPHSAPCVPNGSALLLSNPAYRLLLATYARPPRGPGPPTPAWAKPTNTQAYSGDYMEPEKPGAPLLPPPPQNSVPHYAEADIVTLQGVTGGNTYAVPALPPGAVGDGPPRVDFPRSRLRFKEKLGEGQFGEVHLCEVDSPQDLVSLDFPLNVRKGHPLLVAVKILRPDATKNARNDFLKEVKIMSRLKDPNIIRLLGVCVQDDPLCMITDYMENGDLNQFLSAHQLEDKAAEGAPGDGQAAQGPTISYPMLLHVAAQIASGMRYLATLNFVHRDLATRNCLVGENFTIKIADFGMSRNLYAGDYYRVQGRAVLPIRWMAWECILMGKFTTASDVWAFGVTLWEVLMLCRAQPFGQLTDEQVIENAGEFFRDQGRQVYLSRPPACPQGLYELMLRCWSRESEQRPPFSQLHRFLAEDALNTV

[8] = target: T9, endogenous kinases and other proteins enriched by Kinobeads from mixed lysates of K-562, COLO-205, MV-4-11, SK-N-BE(2) and OVCAR-8 (Homo sapiens, UniProt P54762); assay: as above; conditions: EPHB1
T9 construct: endogenous in cells

[9] = target: T10, endogenous kinases and other proteins enriched by Kinobeads from mixed lysates of K-562, COLO-205, MV-4-11, SK-N-BE(2) and OVCAR-8 (Homo sapiens, UniProt Q13627); assay: as above; conditions: DYRK1A
T10 construct: endogenous in cells

[10] = target: T11, endogenous kinases and other proteins enriched by Kinobeads from mixed lysates of K-562, COLO-205, MV-4-11, SK-N-BE(2) and OVCAR-8 (Homo sapiens, UniProt P80192); assay: as above; conditions: MLK1
T11 construct: endogenous in cells
T11 sequence (P80192 whole entry): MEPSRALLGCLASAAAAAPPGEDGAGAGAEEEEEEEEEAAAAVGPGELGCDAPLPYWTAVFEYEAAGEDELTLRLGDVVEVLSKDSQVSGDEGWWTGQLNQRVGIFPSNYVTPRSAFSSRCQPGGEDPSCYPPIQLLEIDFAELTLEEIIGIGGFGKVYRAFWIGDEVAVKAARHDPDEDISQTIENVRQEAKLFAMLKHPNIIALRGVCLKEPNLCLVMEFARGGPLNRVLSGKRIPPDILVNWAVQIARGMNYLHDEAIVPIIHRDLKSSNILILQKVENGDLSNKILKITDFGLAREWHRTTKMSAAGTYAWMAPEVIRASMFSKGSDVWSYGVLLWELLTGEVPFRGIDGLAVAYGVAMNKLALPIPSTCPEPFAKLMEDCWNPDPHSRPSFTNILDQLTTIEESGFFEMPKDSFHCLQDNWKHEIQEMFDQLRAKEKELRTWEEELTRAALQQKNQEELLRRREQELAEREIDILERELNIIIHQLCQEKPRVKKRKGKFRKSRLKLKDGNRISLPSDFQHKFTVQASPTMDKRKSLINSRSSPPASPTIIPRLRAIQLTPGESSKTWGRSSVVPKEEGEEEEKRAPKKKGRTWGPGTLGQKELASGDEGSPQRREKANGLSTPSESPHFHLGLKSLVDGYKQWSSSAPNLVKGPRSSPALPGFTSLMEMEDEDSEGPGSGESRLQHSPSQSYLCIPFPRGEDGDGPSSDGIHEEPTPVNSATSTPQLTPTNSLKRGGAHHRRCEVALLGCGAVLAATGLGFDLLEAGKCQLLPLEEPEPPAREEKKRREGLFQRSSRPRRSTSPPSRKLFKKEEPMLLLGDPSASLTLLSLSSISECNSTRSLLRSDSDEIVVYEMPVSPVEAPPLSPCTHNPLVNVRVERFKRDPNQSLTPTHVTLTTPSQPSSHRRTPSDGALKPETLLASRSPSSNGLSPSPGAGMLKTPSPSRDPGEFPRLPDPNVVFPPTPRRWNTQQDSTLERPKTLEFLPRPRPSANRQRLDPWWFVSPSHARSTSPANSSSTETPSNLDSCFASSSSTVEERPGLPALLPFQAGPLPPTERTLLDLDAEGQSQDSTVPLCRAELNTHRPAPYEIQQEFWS

[11] = target: T12, endogenous kinases and other proteins enriched by Kinobeads from mixed lysates of K-562, COLO-205, MV-4-11, SK-N-BE(2) and OVCAR-8 (Homo sapiens, UniProt P49760); assay: as above; conditions: CLK2
T12 construct: endogenous in cells
T12 sequence (P49760 whole entry): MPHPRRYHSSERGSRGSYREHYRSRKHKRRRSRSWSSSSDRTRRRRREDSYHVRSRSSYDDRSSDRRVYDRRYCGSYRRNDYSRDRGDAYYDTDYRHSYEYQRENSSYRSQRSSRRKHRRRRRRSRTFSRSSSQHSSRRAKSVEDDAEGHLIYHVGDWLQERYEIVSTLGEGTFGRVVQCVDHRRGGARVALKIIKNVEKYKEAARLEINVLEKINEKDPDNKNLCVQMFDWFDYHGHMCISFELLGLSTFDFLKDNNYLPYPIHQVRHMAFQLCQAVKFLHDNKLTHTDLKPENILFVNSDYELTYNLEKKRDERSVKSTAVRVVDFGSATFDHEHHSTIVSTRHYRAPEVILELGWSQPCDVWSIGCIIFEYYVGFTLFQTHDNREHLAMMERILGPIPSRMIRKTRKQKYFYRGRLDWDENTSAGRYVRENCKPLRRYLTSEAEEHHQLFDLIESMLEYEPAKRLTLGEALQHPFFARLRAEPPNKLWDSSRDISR

[12] = target: T13, endogenous kinases and other proteins enriched by Kinobeads from mixed lysates of K-562, COLO-205, MV-4-11, SK-N-BE(2) and OVCAR-8 (Homo sapiens, UniProt Q12866); assay: as above; conditions: MERTK
T13 construct: endogenous in cells

[13] = target: T14, endogenous kinases and other proteins enriched by Kinobeads from mixed lysates of K-562, COLO-205, MV-4-11, SK-N-BE(2) and OVCAR-8 (Homo sapiens, UniProt Q13163); assay: as above; conditions: MEK5
T14 construct: endogenous in cells
T14 sequence (Q13163 whole entry): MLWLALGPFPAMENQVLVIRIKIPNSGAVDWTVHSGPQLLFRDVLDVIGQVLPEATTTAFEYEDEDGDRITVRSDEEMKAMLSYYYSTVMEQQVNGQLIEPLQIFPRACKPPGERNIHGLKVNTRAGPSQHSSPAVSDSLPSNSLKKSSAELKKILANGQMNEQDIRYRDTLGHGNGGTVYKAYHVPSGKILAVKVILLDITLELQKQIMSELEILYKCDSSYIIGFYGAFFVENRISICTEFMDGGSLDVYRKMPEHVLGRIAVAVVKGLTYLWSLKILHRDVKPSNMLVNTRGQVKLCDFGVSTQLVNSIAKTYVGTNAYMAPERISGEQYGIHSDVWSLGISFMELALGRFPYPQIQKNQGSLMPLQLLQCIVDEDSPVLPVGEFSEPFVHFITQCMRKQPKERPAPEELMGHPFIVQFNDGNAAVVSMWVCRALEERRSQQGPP

[14] = target: T15, endogenous kinases and other proteins enriched by Kinobeads from mixed lysates of K-562, COLO-205, MV-4-11, SK-N-BE(2) and OVCAR-8 (Homo sapiens, UniProt O75716); assay: as above; conditions: STK16
T15 construct: endogenous in cells

CSNK2A2 = CSNK2A2 (Homo sapiens, UniProt P19784); assay: NanoBRET in-cell target engagement in HEK293T cells: CSNK2A2; assay type: cell-based; design: full-length PKN3, CSNK2A1 or CSNK2A2 ORF; host or cells: HEK293T
Chain of CSNK2A2 (P19784 whole entry, the tested form may be a part): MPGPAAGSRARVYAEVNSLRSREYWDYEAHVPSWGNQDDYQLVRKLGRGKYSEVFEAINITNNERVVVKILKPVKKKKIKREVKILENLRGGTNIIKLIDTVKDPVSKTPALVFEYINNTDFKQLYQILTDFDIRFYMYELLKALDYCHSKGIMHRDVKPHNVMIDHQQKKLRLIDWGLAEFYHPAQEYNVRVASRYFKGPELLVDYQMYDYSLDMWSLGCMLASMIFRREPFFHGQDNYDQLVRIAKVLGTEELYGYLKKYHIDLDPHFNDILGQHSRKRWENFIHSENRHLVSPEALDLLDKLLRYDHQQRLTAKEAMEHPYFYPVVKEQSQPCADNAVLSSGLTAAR
Experimental: The NanoBRET assay was performed as described previously[28],[58]. In brief, full-length PKN3, CSNK2A1 or CSNK2A2 ORF (PKN3 vector was a kind gift of Promega, Vectors for […]: NV2981, NV1191) cloned in frame with a C-terminal NanoLuc-fusion, respectively, were transfected into HEK293T cells using FuGENE HD (Promega, E2312) and proteins were allowed to express for 20 h. Serially diluted inhibitor and NanoBRET Kinase Tracer K5 (Promega, N2530) at 500 nM (PKN3) or NanoBRET Kinase Tracer K10 (Promega, N2840) at 500 nM ([…]) were pipetted into 384-well plates using an Echo acoustic dispenser (Labcyte). The PKN3, CSNK2A1 or CSNK2A2 transfected cells were added at a density of 2 × 10^5 cells per ml after trypsinization and resuspending in Opti-MEM without phenol red (Life Technologies). The system was allowed to equilibrate for 2 h at 37 °C and 5% CO2 before BRET measurements. BRET signaling was measured by adding NanoBRET NanoGlo Substrate and Extracellular NanoLuc Inhibitor (Promega) according to the manufacturer’s protocol. Filtered luminescence was measured on a PHERAstar plate reader (BMG Labtech) equipped with a luminescence filter pair (450 nm BP filter (donor) and 610 LP filter (acceptor)). Competitive displacement data were then graphed using GraphPad Prism software (v.5.01) using a three-parameter curve fit with the following equation Y=bottom+(top−bottom)/1+10^logIC50−X×hillslope
Experiments were performed with at least two biological and two technical replicates.

C[C@]12O[C@H](C[C@]1(O)CO)n1c3ccccc3c3c4c(c5c6ccccc6n2c5c31)CNC4=O [Lestaurtinib]
potency estimated from few doses [1]: 345 nM
potency estimated from few doses [2]: 39.1 nM
potency estimated from few doses [3]: 533 nM
potency estimated from few doses [4]: 482 nM
potency estimated from few doses [5]: 808 nM
potency estimated from few doses (GSK3A): 175 nM

COc1cc(Nc2ncc3c(C)nc(-c4cc5ccccc5[nH]4)n3n2)cc(OC)c1OC [GW869516X]
Kinobeads Data [6]: no target
Kinobeads Data [7]: no target
Kinobeads Data [8]: no target
Kinobeads Data [9]: no target
Kinobeads Data [10]: no target
Kinobeads Data [11]: no target
Kinobeads Data [12]: no target
Kinobeads Data [13]: no target
Kinobeads Data [14]: no target
IC50 (CSNK2A2; CSNK2A2, replicate 1, read-out: NanoBRET Rep1): 135 nM
IC50 (CSNK2A2; CSNK2A2, replicate 2, read-out: NanoBRET Rep2): 503 nM
IC50 (CSNK2A2; HEK293T cells, in-cell target engagement, read-out: IC50 CSNK2A2 NanoBRET): 319 nM
